These results are taken from publication PMC9065678, “BI 1015550 is a PDE4B Inhibitor and a Clinical Drug Candidate for the Oral Treatment of Idiopathic Pulmonary Fibrosis” (Frontiers in Pharmacology, 2022).

One data set concerns Col3A1 mRNA expression. In words: TGF-β-induced Col3A1 mRNA expression in IPF lung fibroblasts (Taqman). It counts as cell-based, human. As for the experimental part:
(§1) Fibroblasts from donors with IPF (IPF-LF) (Asterand, Detroit, MI, United States) were grown in fibroblast basal medium (CC-3131, Lonza Walkersville, Inc., Walkersville, MD, United States) supplemented with FGM-2 SingleQuot Kit Supplements and Growth Factors (CC-4126, Lonza). Cells were grown in a humidified incubator at 37°C and 5% CO2. All assays were performed at passage 7 or 8. For assay set-up, cells were seeded in fibroblast growth medium plus supplements in assay-relevant densities. For TGF-β-stimulated assays, cells were seeded at 4,500 cells per well in 96-well plates. Proliferation assays were performed in 96-well plates at an initial seeding cell density on day 0 of 2,000 cells per well. After 24-h, the cell culture medium was changed to starvation medium (fibroblast basal medium without supplements). […]
(§2) For determination of Col1A1, Col3A1, and FN mRNA expression, IPF-LF cells were stimulated with TGF-β (4 ng/mL) for 48 h. […] Quantitative real-time polymerase chain reactions were set up using the TaqMan™ Fast Advanced Master Mix (Applied Biosystems, Carlsbad, CA, United States) and species-specific gene expression assays: Col1A1 #Hs00164004_m1 FAM, Col3A1 #Hs0094309_m1 FAM, FN #Hs01549976_m1 FAM, 18S #4310893E. […] Fold-change of gene expression was calculated by the Viia7 software (regulation based upon housekeeper).
For orientation: Quantitative PCR measures a nucleic acid by following its amplification.

The subject of another data set is FN mRNA expression. In words: TGF-β-induced FN mRNA expression in IPF lung fibroblasts (Taqman). Format: cell-based, human. The following applies: IPF-LF, TGF-β 4 ng/mL, 48 h. The procedure: as §1, §2
Another data set can be described thus: Plasma protein binding. It counts as in vitro ADME.
For data set [1], the system named is phytohemagglutinin P-induced IL-2 release. In words: Phytohemagglutinin P-induced IL-2 release in human PBMCs. Format: cell-based. The settings on record: 10 µg/mL PHA-P for 20 h. As for the experimental part: Blood was donated by internal donors at the Center for Occupational Health at Boehringer Ingelheim in Biberach an der Riss, Germany; the donors provided signed informed consent that allows use for scientific purposes. All research was performed in accordance with the principles stated in the Declaration of Helsinki. Ethical approval was provided by the Federal State Medical Association of Baden-Württemberg, reference no. F-2016–121. For preparation of peripheral blood mononuclear cells (PBMCs), 200 mL freshly drawn human blood from healthy donors was mixed with 50 mL acid-citrate-dextrose solution (38 mmol/L citric acid, 75 mmol/L tri-sodium citrate and 121 mmol/L glucose) and 50 mL Hanks buffered saline solution (Thermo Fisher Scientific, Carlsbad, CA, United States), overlaid on Ficoll and centrifuged for 30 min at 300 x g. PBMCs were diluted in RPMI-1640 medium (Thermo Fisher Scientific) containing 6% (v/v) autologous plasma to a concentration of 5 × 10^6 cells/mL. […] Supernatants were taken and cytokines measured by enzyme-linked immunosorbent assay (ELISA; Becton Dickinson, Franklin Lakes, NJ, United States).

The test system of a further data set is Col1A1 mRNA expression. In words: TGF-β-induced Col1A1 mRNA expression in IPF lung fibroblasts (Taqman). The following applies: IPF-LF, TGF-β 4 ng/mL, 48 h; read-out: IC50 TGF-β-induced Col1 mRNA expression. It counts as cell-based, human. As for the experimental part: as §1, §2
In another data set the target is T1, PDE4D (Homo sapiens, UniProt Q08499).
T1 construct: PDE4D NG_027957, AA 79–438; made in house; host or cells: SF9 insect cells (baculovirus, Bac-To-Bac, pFastbac)
T1 sequence (Q08499 381-740): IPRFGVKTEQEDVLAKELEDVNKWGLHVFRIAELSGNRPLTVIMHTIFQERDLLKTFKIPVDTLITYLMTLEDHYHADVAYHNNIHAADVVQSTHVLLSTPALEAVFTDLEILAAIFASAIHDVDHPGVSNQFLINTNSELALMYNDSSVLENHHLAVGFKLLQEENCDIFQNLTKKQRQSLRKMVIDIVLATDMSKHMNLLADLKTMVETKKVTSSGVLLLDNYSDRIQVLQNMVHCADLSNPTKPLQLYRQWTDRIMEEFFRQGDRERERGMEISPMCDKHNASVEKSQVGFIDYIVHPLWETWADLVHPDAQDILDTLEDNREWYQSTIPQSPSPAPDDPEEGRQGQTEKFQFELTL
In words: Recombinant PDE activity, scintillation proximity assay: PDE4D. Format: biochemical. The following applies: human recombinant active site fragment, substrate [3H]cAMP, means from n independent experiments; read-out: IC50 PDE4D2. As for the experimental part: For the preparation of human recombinant PDEs of interest, the Bac-To-Bac baculoviral expression system from Invitrogen (Carlsbad, CA, United States) was used according to the instruction manual. […] The plasmids were transformed into DH10Bac bacteria, SF9 insect cells were transfected with the bacmid DNA, and the resulting baculoviruses were stored and used for further rounds of infections. For protein production, SF9 cells were infected until a cytopathic effect was visible (after about 72 h), the SF9 cells were harvested and broken up by 3 freeze/thaw cycles, and by shearing 10 times through a 0.1 mm cannula using a syringe. […] The Phosphodiesterase Scintillation Proximity Assays (TRKQ7090 for [^3H]cAMP, GE Healthcare Europe GmbH, Chalfont St Giles, United Kingdom, and TRKQ7100 for [^3H]cGMP, Perkin Elmer, Waltham, MA, United States) were performed essentially according to the instruction manual. […] Assay solutions containing recombinant baculoviral-expressed PDE (to give an activity of 5.000–20.000 cpm corresponding to 5–20% of total activity added), 50 mmol/L Tris/HCl pH 7.5, 8.3 mmol/L MgCl2, 1.7 mmol/L EGTA, and 10 µL radiolabeled substrate (0.05 µCi in H2O) were incubated for 1 h at 30°C (final volume 100 μL).

Take `[O-][S+]1CCc2nc(N3CCC(c4ncc(Cl)cn4)CC3)nc(NC3(CO)CCC3)c21` (stereo not shown) [BI 1015550]: the IC50 turned out to be 0.213 µM in the data set on Col3A1 mRNA expression (IPF-LF, TGF-β 4 ng/mL, 48 h, read-out: IC50 TGF-β-induced Col3 mRNA expression); 0.246 µM in the data set on FN mRNA expression; 0.009 µM in data set [1]; 0.269 µM in the data set on Col1A1 mRNA expression; 0.091 µM on PDE4D. The “Combination effect in inhibiting Col3 mRNA expression” value in the data set on Col3A1 mRNA expression (combination with nintedanib at 100 nmol/L) is recorded as “additive effects”. In “Plasma protein binding”, this molecule registered a Plasma protein binding of 77%.

In general, IC50 refers to the concentration that gives 50% inhibition.
